In paper PMC7412453, “SAR:s for the Antiparasitic Plant Metabolite Pulchrol. 1. The Benzyl Alcohol Functionality” (Molecules, 2020):
Read-outs that look alike come from different tables or passages of the source.

Tests used:
[1] = test system: L. brasiliensis promastigotes; assay: Leishmanicidal activity against L. brasiliensis promastigotes (XTT); details: for IC50: read-out: L. brasiliensis IC50
Protocol: (§1) Evaluations against Leishmania parasites: Promastigotes of Leishmania-Leishmania: L. amazonensis, Clone 1, NHOM-BR-76-LTB-012 (Lma, donated by the Paul Sabatier Université, France) and Leishmania-Viannia: L. braziliensis M2904 C192 RJA (M2904, donated by Dr. Jorge Arévalo from Universidad Peruana Cayetano Heredia, Peru). All strains were cultured in Schneider’s insect medium, (pH 6.2) supplemented with 10% FBS and incubated at 26 °C. Medium changes were made every 72 h to maintain a viable parasitic population. Leishmanicidal activity was determined according to Williams with some modifications. Samples were dissolved in DMSO (maximum final concentration 1%) at 10 mg/mL. Promastigotes in logarithmic phase of growth, at the concentration 3 × 10^6 parasites/mL, were distributed (100 μL/well) in 96-well flat bottom microtiter plates. Samples with different concentrations (3.1–100 μg/mL) were added (100 μL). […] Assays were performed in triplicates. The microwell plates were incubated for 72 h at 26 °C. After incubation, a solution of XTT (1 mg/mL) in PBS (pH 7.0 at 37 °C) with PMS (0.06 mg/mL) was added (50 μL/well), and incubated for 3 h at 26 °C. The optical density of each well was measured and the IC50 values calculated.

[2] = test system: Raw 264.7 murine macrophage cell line; assay: Cytotoxicity in RAW cells (Resazurin); assay type: cell-based; details: RAW cells, 72 h at 37 °C, Resazurin, triplicate
Protocol: (§2) Evaluations against RAW cells: The Raw 264.7 murine macrophage cell line was purchased from the American Type Culture Collection (ATCC-TIB71). The cells were maintained in DMEM-HG medium supplemented with 10% fetal bovine serum, 100 U/mL of penicillin and 100 μg/mL of streptomycin, and sodium bicarbonate (2.2 g/L) in humidified atmosphere at 37 °C with 5% CO2. Samples were prepared as described above and added (in 100 μL DMSO) at different concentrations (6.2–200 μg/mL). Medium blank, control drugs and cell growth controls were included to evaluate cell viability. The plates were incubated for 72 h at 37 °C with 5% CO2. After incubation for the indicated time, the cells were washed, after which 10 μL of Resazurin reagent (2.0 mM) was added. They were further incubated at 37 °C for 3 h in a humidified incubator. The IC50 values were assessed using a fluorometric reader (540 nm excitation, 590 nm emission) and the Gen5 software. All assays were performed in triplicate.

[3] = test system: L. amazoniensis promastigotes; assay: Leishmanicidal activity against L. amazoniensis promastigotes (XTT); details: for IC50: read-out: L. amazoniensis IC50
Protocol: as §1, with “All” for “Evaluations against Leishmania parasites: Promastigotes of Leishmania-Leishmania: L. amazonensis, Clone 1, NHOM-BR-76-LTB-012 (Lma, donated by the Paul Sabatier Université, France) and Leishmania-Viannia: L. braziliensis M2904 C192 RJA (M2904, donated by Dr. Jorge Arévalo from Universidad Peruana Cayetano Heredia, Peru). All”

T. cruzi epimastigotes = assay: Trypanocidal activity against T. cruzi epimastigotes (XTT); assay type: cell-based, Trypanosoma cruzi; details: for IC50: read-out: T. cruzi IC50; for selectivity ratio at 72 h: mouse (RAW 264.7 cells) / Trypanosoma cruzi (epimastigotes), read-out: T. cruzi SI (selectivity index, cytotoxicity/anti-protozoal activity)
Protocol: Trypanocidal activity was determined according to Muelas-Serrano with some modifications. […] Benznidazol (3.1–100 μg/mL) was used as the control drug. Assays were performed in triplicates.

[4] = Cytotoxicity in RAW cells (Resazurin); assay type: cell-based, murine; details: mouse
Protocol: as §2

[5] = test system: promastigotes of L. mexicana; parameters: method as in doi:10.1016/j.phytol.2009.10.002; details: not part of this investigation; cited from earlier work
[6] = promastigotes, 72 h at 26 °C, XTT, triplicates
[7] = L. brasiliensis SI (selectivity index, cytotoxicity/anti-protozoal activity), RAW cell IC50 / L. brasiliensis IC50
[8] = L. amazoniensis SI (selectivity index, cytotoxicity/anti-protozoal activity), RAW cell IC50 / L. amazoniensis IC50
[9] = Trypanosoma cruzi, epimastigotes, 72 h at 26 °C, XTT, triplicates

## 2-Methoxy-6,6-dimethyl-9-(((4-methoxypentyl)oxy)methyl)-6H-benzo[c]chromene [3e]
[1]; RAW cell IC50 / L. brasiliensis IC50
  L. brasiliensis SI (selectivity index, cytotoxicity/anti-protozoal activity): 0.3
[1]; [6]
  IC50: 127 ± 11.3 µM
[2]
  IC50: 31.6 ± 5.6 µM
[3]; RAW cell IC50 / L. amazoniensis IC50
  L. amazoniensis SI (selectivity index, cytotoxicity/anti-protozoal activity): 1.1
[3]; [6]
  IC50: 28.2 ± 8.5 µM
T. cruzi epimastigotes; RAW cell IC50 / T. cruzi IC50
  T. cruzi SI (selectivity index, cytotoxicity/anti-protozoal activity): 3.5
T. cruzi epimastigotes; epimastigotes, 72 h at 26 °C, XTT, triplicates
  IC50: 9 ± 0.6 µM

## COc1ccc2c(c1)-c1cc(COC(=O)c3ccco3)ccc1C(C)(C)O2 [4k, (2-Methoxy-6,6-dimethyl-6H-benzo[c]chromen-9-yl)methyl furan-2-carboxylate]
[1]; 72 h
  IC50: 12.8 ± 0.1 µM
[1]; [7]
  selectivity ratio at 72 h: 2.4
[4]
  IC50 at 72 h: 30.5 ± 3.6 µM
[3]; [8]
  selectivity ratio at 72 h: 2.4
[3]; Leishmania amazonensis, 72 h
  IC50: 12.8 ± 1.8 µM
T. cruzi epimastigotes; [9]
  IC50: 3.8 ± 0.3 µM
T. cruzi epimastigotes; RAW cell IC50 / T. cruzi IC50
  selectivity ratio at 72 h: 7.9

## COc1ccc2c(c1)-c1cc(COC(=O)c3ccccc3)ccc1C(C)(C)O2 [4l, (2-Methoxy-6,6-dimethyl-6H-benzo[c]chromen-9-yl)methyl benzoate]
[1]; 72 h
  IC50: 21 ± 4.3 µM
[1]; [7]
  selectivity ratio at 72 h: 1.3
[4]
  IC50 at 72 h: 27.8 ± 10.7 µM
[3]; [8]
  selectivity ratio at 72 h: 1.3
[3]; Leishmania amazonensis, 72 h
  IC50: 21.9 ± 7.7 µM
T. cruzi epimastigotes; [9]
  IC50: 5.9 ± 0.5 µM
T. cruzi epimastigotes; RAW cell IC50 / T. cruzi IC50
  selectivity ratio at 72 h: 4.7

## COc1ccc2c(c1)-c1cc(C=O)ccc1C(C)(C)O2 [5a, 2-Methoxy-6,6-dimethyl-6H-benzo[c]chromene-9-carbaldehyde]
[1]; 72 h
  IC50: 24.2 ± 7.5 µM
[1]; [7]
  selectivity ratio at 72 h: 1.6
[4]
  IC50 at 72 h: 38.8 ± 3.7 µM
[3]; [8]
  selectivity ratio at 72 h: 1.3
[3]; Leishmania amazonensis, 72 h
  IC50: 29.8 ± 11.2 µM
T. cruzi epimastigotes; [9]
  IC50: 24.2 ± 4.1 µM
T. cruzi epimastigotes; RAW cell IC50 / T. cruzi IC50
  selectivity ratio at 72 h: 1.6

## COc1ccc2c(c1)-c1cc(C(C)=O)ccc1C(C)(C)O2 [5b, 1-(2-Methoxy-6,6-dimethyl-6H-benzo[c]chromen-9-yl)ethan-1-one]
[1]; 72 h
  IC50: 28.3 ± 7.1 µM
[1]; [7]
  selectivity ratio at 72 h: 1.1
[4]
  IC50 at 72 h: 31.9 ± 7.1 µM
[3]; [8]
  selectivity ratio at 72 h: 0.7
[3]; Leishmania amazonensis, 72 h
  IC50: 43.2 ± 8.2 µM
T. cruzi epimastigotes; [9]
  IC50: 21.2 ± 9.2 µM
T. cruzi epimastigotes; RAW cell IC50 / T. cruzi IC50
  selectivity ratio at 72 h: 1.5

## COc1ccc2c(c1)-c1cc(C(=O)O)ccc1C(C)(C)O2 [5c, 2-Methoxy-6,6-dimethyl-6H-benzo[c]chromene-9-carboxylic acid]
[1]; 72 h
  IC50: 65.1 ± 16.5 µM
[1]; [7]
  selectivity ratio at 72 h: 3.8
[4]
  IC50 at 72 h: 246 ± 24.6 µM
[3]; [8]
  selectivity ratio at 72 h: 1.2
[3]; Leishmania amazonensis, 72 h
  IC50: 199 µM
T. cruzi epimastigotes; [9]
  IC50: 56.3 µM
T. cruzi epimastigotes; RAW cell IC50 / T. cruzi IC50
  selectivity ratio at 72 h: 4.4

## COC(=O)c1ccc2c(c1)-c1cc(OC)ccc1OC2(C)C [5d, Methyl 2-Methoxy-6,6-dimethyl-6H-benzo[c]chromene-9-carboxylate]
[1]; 72 h
  IC50: 18.4 ± 5.7 µM
[1]; [7]
  selectivity ratio at 72 h: 2.1
[4]
  IC50 at 72 h: 38.2 ± 2.7 µM
[3]; [8]
  selectivity ratio at 72 h: 0.7
[3]; Leishmania amazonensis, 72 h
  IC50: 59 ± 1.3 µM
T. cruzi epimastigotes; [9]
  IC50: 31.8 ± 2.4 µM
T. cruzi epimastigotes; RAW cell IC50 / T. cruzi IC50
  selectivity ratio at 72 h: 1.2

## COc1ccc2c(c1)-c1cc(C(N)=O)ccc1C(C)(C)O2 [5e, 2-Methoxy-6,6-dimethyl-6H-benzo[c]chromene-9-carboxamide]
[1]; 72 h
  IC50: 145 ± 43.1 µM
[1]; [7]
  selectivity ratio at 72 h: 0.3
[4]
  IC50 at 72 h: 49.8 ± 17.7 µM
[3]; [8]
  selectivity ratio at 72 h: 0.4
[3]; Leishmania amazonensis, 72 h
  IC50: 121 ± 21.2 µM
T. cruzi epimastigotes; [9]
  IC50: 134 ± 38.8 µM
T. cruzi epimastigotes; RAW cell IC50 / T. cruzi IC50
  selectivity ratio at 72 h: 0.4

## COc1ccc2c(c1)-c1cc(CO)ccc1C(C)(C)O2 [compound 1, (2-methoxy-6,6-dimethyl-6H-benzo[c]chromen-9-yl)methanol]
[1]
  selectivity ratio at 72 h: 0.5
[1]; 72 h
  IC50: 59.2 ± 11.8 µM
[4]; RAW cells, 72 h at 37 °C, Resazurin, triplicate, read-out: Cytotoxicity IC50
  IC50 at 72 h: 30.7 ± 1.1 µM
[5]
  IC50: 17 µM
[3]
  selectivity ratio at 72 h: 0.4
[3]; Leishmania amazonensis, 72 h
  IC50: 77.7 ± 5.6 µM
T. cruzi epimastigotes; Trypanosoma cruzi, 72 h
  IC50: 18.5 ± 9.6 µM
T. cruzi epimastigotes; RAW cell IC50 / T. cruzi IC50
  selectivity ratio at 72 h: 1.7

## COc1ccc2c(c1)-c1cc(C(=N)NO)ccc1C(C)(C)O2 [compound 6, N-hydroxy-2-methoxy-6,6-dimethyl-6H-benzo[c]chromene-9-carboximidamide]
[1]; 72 h
  IC50: 52 ± 18.6 µM
[1]; [7]
  selectivity ratio at 72 h: 0.5
[4]
  IC50 at 72 h: 26.4 ± 1.5 µM
[3]; [8]
  selectivity ratio at 72 h: 0.5
[3]; Leishmania amazonensis, 72 h
  IC50: 52 ± 16.7 µM
T. cruzi epimastigotes; [9]
  IC50: 33.4 ± 14.9 µM
T. cruzi epimastigotes; RAW cell IC50 / T. cruzi IC50
  selectivity ratio at 72 h: 0.8
